Laboratory results taken from EP0114577A1, “New pharmaceutical composition” (MAGIS FARMACEUTICI S.p.A., priority 1983, dated 1984).

Experiment: Serum levels of radioactivity after administration of 14C-CDPC (liposomal suspension vs aqueous solution) to rats
Settings: rat, in vivo, 200 mg/kg
Excerpt: Surprising results which are obtained orally administering carried-by-liposomes CDPC instead of utilizing hitherto known pharmaceutical compositions for oral administration are confirmed by data obtained by carrying out tests hereinbelow described. During the tests as pharmaceutical composition containing carried-by-liposomes CDPC, CDPC carried by means of a liposome having purified phosphatidylcholine from soybean as hydrophobic phase was utilized; said pharmaceutical composition will be called hereinafter Lip. CDPC for the sake of brevity. Moreover, during the hereinbelow describ ed tests, a marked CDPC was utilized having an atom of ^14C introduced into the methyl group of the cholinic side of the molecule. The radioactivity resulted to be about 0.1 µ Curie/mg pure CDPC.
The suspension of Lip. CDPC containing ^14C-CDPC, which was obtained as described in Example No. 1, and a ' reference aqueous solution of ^14C-CDPC were administered by gavage to rats of average weight of 200 g at the doses of 200 mg/Kg (referred to pure CDPC).
Blood abstractions were carried out at various intervals of time and, 24 hours after the start of test, the animals were sacrificed. Amounts of absorbed active ingredient were calculated from radioactivity measures on serum; said amounts, as reported in following Tables (1 - 2), were higher on the average in tests carried out employing Lip. CDPC in comparison with controls with pure CDPC in aqueous solution. It is apparent from the analysis of Tables that, in the described experimental conditions, there is a valuable absorption of CDPC after oral administration. The amount of said absorption and pertinent hematic concentrations are remarkably higher when Lip. CDPC, which is object of the present invention, is used: for example at the 6th hour the serum concentration of CDPC for Lip. CDPC was much higher than concentration found for CDPC administered in aqueous solution.

C[N+](C)(C)CCOP(=O)(O)OP(=O)([O-])OC[C@H]1O[C@@H](n2ccc(N)nc2=O)[C@H](O)[C@@H]1O [CDPC, cytidine diphosphate choline ester]
Serum concentration (0 min): 0 CPM x 10^-3
Serum concentration (60 min): 0.3 CPM x 10^-3
Serum concentration (120 min): 1 CPM x 10^-3
Serum concentration (300 min): 2.6 CPM x 10^-3
Serum concentration (600 min): 4 CPM x 10^-3
Serum concentration (900 min): 4 CPM x 10^-3
